This note sets out measurements from ChEMBL document CHEMBL1131746, “Synthesis of taxoids 5. Synthesis and evaluation of novel water-soluble prodrugs of a 3'-desphenyl-3'-cyclopropyl analogue of docetaxel” (Bioorg Med Chem Lett, 1999).

In brackets after ≈: the same amount, converted by molar mass.

Data set [1] is described as follows: Ratio of IC50 of docetaxel / IC50 against OVCAR-3 cell line was determined. Type of data set: functional.
The nature of data set [2]: Ratio of IC50 of docetaxel / IC50 against SK-BR-3 cell line was determined. Type of data set: functional.
A short description of data set [3]: Ratio of IC50 of docetaxel / IC50 against WiDr cell line was determined. It counts as functional.
The test system of data set [4] is OVCAR-3. Kind of data set: Inhibitory concentration required against OVCAR-3 human ovarian cancer cell line was determined. Type of data set: functional, cell-based.
Data set [5] in a line: Inhibitory concentration required against MKN1 human stomach cancer cell line was determined. It counts as functional, cell-based. As to conditions: cancer cell lines.
In data set [6] the test system is SK-BR-3. Kind of data set: Inhibitory concentration required against SK-BR-3 human breast cancer cell line was determined. It counts as functional, cell-based.
Data set [7] has as its system Mus musculus. Kind of data set: Antitumor activity was measured as change in body weight on day 10 in mice implanted with B16 melanoma cells at a dose of 6.3 mg/kg/day. It counts as functional.
The nature of data set [8]: Ratio of IC50 of docetaxel / IC50 against MKN1 cell line was determined. It counts as functional, MKN-1.
The test system of data set [9] is Mus musculus. Kind of data set: Compound was evaluated for antitumor activity by iv administration against B16 melanoma implanted sc in mice at a dose of 6.3 mg/kg/day. It counts as functional.
Data set [10] can be described thus: Ratio of IC50 of docetaxel / IC50 against SK-LU-1 cell line was determined. It counts as functional.
Data set [11] is described as follows: Inhibitory concentration required against Colon320 human colon cancer cell line was determined. It counts as functional, cell-based. As to conditions: cancer cell lines.
Data set [12] is described as follows: Ratio of IC50 of docetaxel / IC50 against Colon 320 cell line was determined. Type of data set: functional, COLO 320.
Data set [13] has as its system WiDr. Kind of data set: Inhibitory concentration required against WiDr human colon cancer cell line was determined. It counts as functional, cell-based.
The test system of data set [14] is SK-LU-1. Kind of data set: Inhibitory concentration required against SK-LU-1 human lung cancer cell line was determined. Type of data set: functional, cell-based.
A short description of data set [15]: Solubility in saline. It counts as physicochemical. As to conditions: read-out: S.
In data set [16] the test system is Mus musculus. Kind of data set: Antitumor activity was measured as change in body weight on day 10 in mice implanted with B16 melanoma cells at dose of 12.5 mg/kg/day. It counts as functional.
Data set [17] deals with Mus musculus. Kind of data set: Compound was evaluated for antitumor activity by iv administration against B16 melanoma implanted sc in mice at dose 12.5 mg/kg/day. Type of data set: functional.
The subject of data set [18] is Mus musculus. Kind of data set: Antitumor activity was measured as change in body weight on day 10 in mice implanted with B16 melanoma cells at dose of 20 mg/kg/day. It counts as functional.
Data set [19] concerns Mus musculus. Kind of data set: Compound was evaluated for antitumor activity by iv administration against B16 melanoma implanted sc in mice at dose 20 mg/kg/day. Type of data set: functional.

In the case of `CC(=O)O[C@@]12CO[C@@H]1C[C@H](O)[C@@]1(C)C(=O)[C@H](O)C3=C(C)[C@@H](OC(=O)[C@H](O)[C@@H](NC(=O)OC(C)(C)C)C4CC4)C[C@@](O)([C@@H](OC(=O)c4ccccc4)[C@H]21)C3(C)C`, the Ratio amounted to 2.3 in data set [1]; 4.3 in [2]; 16 in data set [3]; 1.4 in data set [8]; 1.8 in data set [10]; 23 in [12]. Also, the IC50 (in general, the midpoint of a concentration-inhibition curve) in data set [4] stood at 0.52 nM; in data set [5] it was 1.2 nM; in data set [6], 1.1 nM; in [11], 0.21 nM; in data set [13] it was 0.027 nM; in data set [14], 1 nM. In [7], the Body weight change is on record as -7.5%. Also, the ILS (commonly how much longer treated animals lived than controls) at 6.3 mg/kg/day in data set [9] came out at 187%.
For the molecule `CC(=O)O[C@@]12CO[C@@H]1C[C@H](O)[C@@]1(C)C(=O)[C@H](O)C3=C(C)[C@@H](OC(=O)[C@H](OC(=O)OCOC(=O)C[C@H](N)C(=O)O)[C@@H](NC(=O)OC(C)(C)C)C4CC4)C[C@@](O)([C@@H](OC(=O)c4ccccc4)[C@H]21)C3(C)C`, the solubility in [15] amounted to 1000 µg/mL (≈ 1.04 mM). In addition, the Body weight change in [16] was found to be 3.3%. In data set [17], this molecule yielded an increase in lifespan (ILS) at 12.5 mg/kg/day of 212%.
Regarding `CC(=O)O[C@@]12CO[C@@H]1C[C@H](O)[C@@]1(C)C(=O)[C@H](O)C3=C(C)[C@@H](OC(=O)[C@H](O)[C@@H](NC(=O)OC(C)(C)C)c4ccccc4)C[C@@](O)([C@@H](OC(=O)c4ccccc4)[C@H]21)C3(C)C.O.O.O` [DOCETAXEL], the Body weight change in data set [18] was -13%. Further, the IC50 in data set [4] is 1.2 nM; in data set [5] it was 1.7 nM; in data set [6], 4.7 nM; in data set [11], 4.8 nM; in data set [13], 0.43 nM; in [14] it was 1.8 nM. In data set [19], this molecule had an ILS at 20 mg/kg/day of 149%.
For `CNC(=O)[C@@H](N)CC(=O)OCOC(=O)O[C@@H](C(=O)O[C@H]1C[C@@]2(O)[C@@H](OC(=O)c3ccccc3)[C@@H]3[C@]4(OC(C)=O)CO[C@@H]4C[C@H](O)[C@@]3(C)C(=O)[C@H](O)C(=C1C)C2(C)C)[C@@H](NC(=O)OC(C)(C)C)C1CC1`, the solubility in data set [15] was found to be 10000 µg/mL (≈ 10.3 mM). Besides, in data set [16], the Body weight change is -0.5%. In data set [17], this molecule gave an increase in lifespan (ILS) at 12.5 mg/kg/day of 185%.
For `CC(=O)O[C@@]12CO[C@@H]1C[C@H](O)[C@@]1(C)C(=O)[C@H](O)C3=C(C)[C@@H](OC(=O)[C@H](OC(=O)OCOC(=O)C[C@@H](N)C(N)=O)[C@@H](NC(=O)OC(C)(C)C)C4CC4)C[C@@](O)([C@@H](OC(=O)c4ccccc4)[C@H]21)C3(C)C` the same measures were 50000 µg/mL (≈ 52.1 mM), -11.1% and 127%.
The corresponding values for `CCOC(=O)[C@@H](N)CC(=O)OCOC(=O)O[C@@H](C(=O)O[C@H]1C[C@@]2(O)[C@@H](OC(=O)c3ccccc3)[C@@H]3[C@]4(OC(C)=O)CO[C@@H]4C[C@H](O)[C@@]3(C)C(=O)[C@H](O)C(=C1C)C2(C)C)[C@@H](NC(=O)OC(C)(C)C)C1CC1` are 10000 µg/mL (≈ 10.1 mM), -2.9% and 213%.
For `CC(=O)O[C@@]12CO[C@@H]1C[C@H](O)[C@@]1(C)C(=O)[C@H](O)C3=C(C)[C@@H](OC(=O)[C@H](OC(=O)OCOC(=O)C[C@H](N)C(N)=O)[C@@H](NC(=O)OC(C)(C)C)C4CC4)C[C@@](O)([C@@H](OC(=O)c4ccccc4)[C@H]21)C3(C)C` the same measures were 5000 µg/mL (≈ 5.21 mM), -3.2% and 227%.
